# Molecular target: T1, HDAC6 enzyme (Homo sapiens, UniProt Q9UBN7)
# T1 construct: transducing full length HDAC6 gene into Sf-9 insect cells; GST; purchased SignalChem; host or cells: Sf-9 insect cells
# T1 sequence (Q9UBN7 1-1215): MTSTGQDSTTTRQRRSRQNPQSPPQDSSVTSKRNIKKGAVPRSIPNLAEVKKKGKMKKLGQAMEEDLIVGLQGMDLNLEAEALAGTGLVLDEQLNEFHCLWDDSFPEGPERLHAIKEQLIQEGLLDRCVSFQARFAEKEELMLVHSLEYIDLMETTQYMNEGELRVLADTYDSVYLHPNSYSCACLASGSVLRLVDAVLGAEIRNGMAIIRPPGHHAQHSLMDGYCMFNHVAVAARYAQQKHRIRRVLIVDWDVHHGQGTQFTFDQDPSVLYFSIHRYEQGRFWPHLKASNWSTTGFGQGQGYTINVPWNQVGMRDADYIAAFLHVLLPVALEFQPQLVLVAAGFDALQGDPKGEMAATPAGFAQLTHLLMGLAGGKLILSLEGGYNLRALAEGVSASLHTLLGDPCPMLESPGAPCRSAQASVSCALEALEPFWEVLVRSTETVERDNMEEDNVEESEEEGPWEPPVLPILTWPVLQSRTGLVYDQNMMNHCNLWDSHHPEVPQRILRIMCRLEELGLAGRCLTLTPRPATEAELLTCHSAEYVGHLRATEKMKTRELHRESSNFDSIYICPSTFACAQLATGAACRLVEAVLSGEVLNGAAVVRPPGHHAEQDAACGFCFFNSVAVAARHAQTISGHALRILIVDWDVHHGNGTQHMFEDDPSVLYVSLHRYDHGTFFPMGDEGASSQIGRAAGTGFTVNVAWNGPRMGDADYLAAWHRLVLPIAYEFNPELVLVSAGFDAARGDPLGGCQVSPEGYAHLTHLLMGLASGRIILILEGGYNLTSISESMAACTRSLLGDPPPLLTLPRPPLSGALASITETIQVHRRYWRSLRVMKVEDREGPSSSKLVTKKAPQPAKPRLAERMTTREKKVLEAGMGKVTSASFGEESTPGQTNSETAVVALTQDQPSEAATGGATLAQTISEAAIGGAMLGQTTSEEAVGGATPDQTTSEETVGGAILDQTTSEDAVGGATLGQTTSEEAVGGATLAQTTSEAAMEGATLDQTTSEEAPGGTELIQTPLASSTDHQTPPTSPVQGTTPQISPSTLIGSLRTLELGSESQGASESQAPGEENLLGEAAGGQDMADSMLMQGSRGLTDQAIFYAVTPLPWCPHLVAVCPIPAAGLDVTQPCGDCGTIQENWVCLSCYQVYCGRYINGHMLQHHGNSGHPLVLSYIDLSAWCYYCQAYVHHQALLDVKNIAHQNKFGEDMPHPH
# Experiment: HDAC6 enzyme inhibitory activity (HDAC-Glo I/II Assay kit)
# Format: biochemical
# Settings: 10 μM; wells without enzyme = 100% inhibition
# In short: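 Sf-9-derived GST-purified full-length HDAC6 + cpd, 60 min RT, 24 mM Tris pH 7.5/0.6 mM glutathione/0.01% Tween-20; add HDAC-Glo substrate-developer, 20 min RT; luminescence. No-enzyme = 100% inhibition.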
row,HDAC6 inhibitory rate (%) (10 μM),SMILES
1,100,"O=C1c2cc(-c3nnc(C(F)F)o3)cnc2CN1[C@@H]1COCC[C@H]1Oc1ccc(F)c(F)c1 [Example 649, 1,5-anhydro-2,4-dideoxy-2-(3-(5-(difluoromethyl)-1,3,4-oxadiazol-2-yl)-5-oxo-5,7-dihydro-6H-pyrrolo[3,4-b]pyridin-6-yl)-3-O-(3,4-difluorophenyl)-threo-pentitol (Optical Isomer)]"
2,100,"O=C1c2cc(-c3nnc(C(F)F)o3)cnc2CN1[C@@H]1COCC[C@H]1Oc1cc(F)cc(F)c1 [Example 651, 1,5-anhydro-2,4-dideoxy-2-(3-(5-(difluoromethyl)-1,3,4-oxadiazol-2-yl)-5-oxo-5,7-dihydro-6H-pyrrolo[3,4-b]pyridin-6-yl)-3-O-(3,5-difluorophenyl)-threo-pentitol (optical isomer)]"
3,99,"O=C1c2cc(-c3nnc(C(F)F)o3)cnc2CN1[C@@H]1COCC[C@H]1Oc1cccc(F)c1 [Example 653, 1,5-anhydro-2,4-dideoxy-2-(3-(5-(difluoromethyl)-1,3,4-oxadiazol-2-yl)-5-oxo-5,7-dihydro-6H-pyrrolo[3,4-b]pyridin-6-yl)-3-O-(3-fluorophenyl)-threo-pentitol (optical isomer)]"
4,100,"O=C1c2cc(-c3nnc(C(F)F)o3)cnc2CN1[C@@H]1COCC[C@H]1Oc1ccc(F)cc1F [Example 656, 1,5-anhydro-2,4-dideoxy-2-(3-(5-(difluoromethyl)-1,3,4-oxadiazol-2-yl)-5-oxo-5,7-dihydro-6H-pyrrolo[3,4-b]pyridin-6-yl)-3-O-(2,4-difluorophenyl)-threo-pentitol (Optical Isomer)]"

# Same assay, conditions: 10 μM; wells without enzyme = 100% inhibition; read-out: HDAC6 inhibitory rate (%) (10 μM)
row,inhibition at 10 µM [%],SMILES
1,100,"CC(F)(F)C(=O)N[C@@H]1CCC(F)(F)C[C@H]1N1Cc2ccc(-c3nnc(C(F)F)o3)cc2C1=O [Example 637, N-((1R,2R)-2-(6-(5-(difluoromethyl)-1,3,4-oxadiazol-2-yl)-1-oxo-1,3-dihydro-2H-isoindol-2-yl)-4,4-difluorocyclohexyl)-2,2-difluoropropanamide]"
2,93,"N[C@@H]1CCC(F)(F)C[C@H]1N1Cc2ncc(-c3nnc(C(F)F)o3)cc2C1=O [Example 638, 6-((1R,2R)-2-amino-5,5-difluorocyclohexyl)-3-(5-(difluoromethyl)-1,3,4-oxadiazol-2-yl)-6,7-dihydro-5H-pyrrollo[3,4-b]pyridin-5-one]"
3,100,"CC(F)(F)C(=O)N[C@@H]1CC(F)(F)CC[C@H]1N1Cc2ncc(-c3nnc(C(F)F)o3)cc2C1=O [Example 639, N-((1R,2R)-2-(3-(5-(difluoromethyl)-1,3,4-oxadiazol-2-yl)-5-oxo-5,7-dihydro-6H-pyrrolo[3,4-b]pyridin-6-yl)-5,5-difluorocyclohexyl)-2,2-difluoropropanamide]"
4,100,"O=C1c2cc(-c3nnc(C(F)F)o3)cnc2CN1[C@@H]1CCC(F)(F)C[C@H]1NC(=O)C(F)(F)C(F)(F)F [Example 640, N-((1R,2R)-2-(3-(5-(difluoromethyl)-1,3,4-oxadiazol-2-yl)-5-oxo-5,7-dihydro-6H-pyrrolo[3,4-b]pyridin-6-yl)-5,5-difluorocyclohexyl)-2,2,3,3,3-pentafluoropropanamide]"
5,99,"O=C1c2cc(-c3nnc(C(F)F)o3)cnc2CN1[C@@H]1CCC(F)(F)C[C@H]1NC(=O)C(F)(F)C(F)F [Example 641, N-((1R,2R)-2-(3-(5-(difluoromethyl)-1,3,4-oxadiazol-2-yl)-5-oxo-5,7-dihydro-6H-pyrrolo[3,4-b]pyridin-6-yl)-5,5-difluorocyclohexyl)-2,2,3,3-tetrafluoropropanamide]"
6,100,CC(F)(F)C(=O)N[C@@H]1CCC(F)(F)C[C@H]1N1Cc2ncc(-c3nnc(C(F)F)o3)cc2C1=O [Example 643]
7,100,"O=C1c2cc(-c3nnc(C(F)F)o3)cnc2CN1[C@@H]1COCC[C@H]1Oc1cccc(F)c1 [Example 652, 1,5-anhydro-2,4-dideoxy-2-(3-(5-(difluoromethyl)-1,3,4-oxadiazol-2-yl)-5-oxo-5,7-dihydro-6H-pyrrolo[3,4-b]pyridin-6-yl)-3-O-(3-fluorophenyl)-threo-pentitol (optical isomer)]"
8,100,"O=C1c2cc(-c3nnc(C(F)F)o3)cnc2CN1[C@@H]1COCC[C@H]1Oc1cccc(F)c1F [Example 657, 1,5-anhydro-2,4-dideoxy-2-{3-[5-(difluoromethyl)-1,3,4-oxadiazol-2-yl]-5-oxo-5,7-dihydro-6H-pyrrolo[3,4-b]pyridin-6-yl}-3-O-(2,3-difluorophenyl)-threo-pentitol (optical isomer)]"

# The remaining lines, values behind:
row,SMILES,inhibition at 10 µM [%]
1,"O=C1c2cc(-c3nnc(C(F)F)o3)ccc2CN1[C@@H]1CC(F)(F)CC[C@H]1NC(=O)C(F)(F)C(F)F [Example 636, N-((1R,2R)-2-(6-(5-(difluoromethyl)-1,3,4-oxadiazol-2-yl)-1-oxo-1,3-dihydro-2H-isoindol-2-yl)-4,4-difluorocyclohexyl)-2,2,3,3-tetrafluoropropanamide]",100
2,"O=C1c2cc(-c3nnc(C(F)F)o3)cnc2CN1[C@@H]1CC(F)(F)CC[C@H]1NC(=O)C(F)(F)C(F)(F)F [Example 642, N-((1R,2R)-2-(3-(5-(difluoromethyl)-1,3,4-oxadiazol-2-yl)-5-oxo-5,7-dihydro-6H-pyrrolo[3,4-b]pyridin-6-yl)-4,4-difluorocyclohexyl)-2,2,3,3,3-pentafluoropropanamide]",100
3,"O=C1c2cc(-c3nnc(C(F)F)o3)cnc2CN1[C@@H]1CC(F)(F)CC[C@H]1NC(=O)C(F)(F)C(F)F [Example 644, N-((1R,2R)-2-(3-(5-(difluoromethyl)-1,3,4-oxadiazol-2-yl)-5-oxo-5,7-dihydro-6H-pyrrolo[3,4-b]pyridin-6-yl)-4,4-difluorocyclohexyl)-2,2,3,3-tetrafluoropropanamide]",99
4,"CCN(CC)C(=O)C1CC(F)(F)CCN1N1Cc2ccc(-c3nnc(C(F)F)o3)cc2C1=O (centres unmarked) [Example 645, 1-(6-(5-(difluoromethyl)-1,3,4-oxadiazol-2-yl)-1-oxo-1,3-dihydro-2H-isoindol-2-yl)-N,N-diethyl-4,4-difluoropiperidine-2-carboxamide]",99
5,"O=C1c2cc(-c3nnc(C(F)F)o3)cnc2CN1[C@@H]1COCC[C@H]1Oc1ccc(F)c(F)c1 [Example 646, 1,5-anhydro-2,4-dideoxy-2-(3-(5-(difluoromethyl)-1,3,4-oxadiazol-2-yl)-5-oxo-5,7-dihydro-6H-pyrrolo[3,4-b]pyridin-6-yl)-3-O-(3,4-difluorophenyl)-threo-pentitol]",99
6,"O=C1c2cc(-c3nnc(C(F)F)o3)cnc2CN1[C@@H]1COCC[C@H]1Oc1ccccc1F [Example 647, 1,5-anhydro-2,4-dideoxy-2-(3-(5-(difluoromethyl)-1,3,4-oxadiazol-2-yl)-5-oxo-5,7-dihydro-6H-pyrrolo[3,4-b]pyridin-6-yl)-3-O-(2-fluorophenyl)-threo-pentitol (optical isomer)]",100
7,"O=C1c2cc(-c3nnc(C(F)F)o3)cnc2CN1[C@@H]1COCC[C@H]1Oc1cc(F)cc(F)c1 [Example 650, 1,5-anhydro-2,4-dideoxy-2-(3-(5-(difluoromethyl)-1,3,4-oxadiazol-2-yl)-5-oxo-5,7-dihydro-6H-pyrrolo[3,4-b]pyridin-6-yl)-3-O-(3,5-difluorophenyl)-threo-pentitol (optical isomer)]",99
8,"O=C1c2cc(-c3nnc(C(F)F)o3)cnc2CN1[C@@H]1COCC[C@H]1Oc1ccc(F)cc1F [Example 655, 1,5-anhydro-2,4-dideoxy-2-(3-(5-(difluoromethyl)-1,3,4-oxadiazol-2-yl)-5-oxo-5,7-dihydro-6H-pyrrolo[3,4-b]pyridin-6-yl)-3-O-(2,4-difluorophenyl)-threo-pentitol]",96
